Measurements as given in PMC6315388, “Azasulfurylpeptide Modulation of CD36-Mediated Inflammation Without Effect on Neovascularization” (Biomedicines, 2018).
Where two headings read alike, the source gives them in different places. Marks after values point to notes of the source that are not given here. Starred links: 1 amine or outer side, 2 acyl side, 3 side chain; linkers in the order of their positions; H or OH if unused. Non-standard residues stand in square brackets, D forms with d. Residues, ends and D or L forms follow the SMILES beside them. aza(4-F)Phe = aza-4-fluorophenylalanine (alpha-carbon replaced by nitrogen, para-fluoro), O=C(N(Cc1ccc(F)cc1)N[*:1])[*:2]; X1 = O=C([C@@H](Cc1ccccc1)NS(=O)(=O)N(Cc1ccc(F)cc1)N[*:1])[*:2]; azaTyr = O=C(N(Cc1ccc(O)cc1)N[*:1])[*:2]

Legend:
CD36 [1] = target: T1, CD36 (Rattus norvegicus, UniProt Q07969); assay: Competition with [125I]-Tyr-Bpa-Ala-hexarelin tracer for CD36 binding on purified rat heart membranes; conditions: purified membranes from rat heart, read-out: CD36 binding affinity IC50
T1 construct: purified membranes from rat heart as a source of CD36; from tissue; host or cells: rat heart (purified membranes)
Method: The ability of [(4-F)AsF^4]-GHRP-6 (3c) to compete with the radiolabeled [^125I]-Tyr-Bpa-Ala-hexarelin used as tracer for CD36 binding was tested on purified membranes from rat heart as a source of CD36 [36].

[2] = system: NO overproduction in J774 macrophage cell line elicited by TLR-2 agonist (R-FSL-1); assay: Modulation of TLR2 agonist (R-FSL-1)-induced overproduction of nitric oxide in J774 macrophage cell line (nitrite, DAN fluorescence); format: cell-based, murine; conditions: J774 macrophages; for NO inhibition Fold of 1: 2 h pre-incubation, overnight stimulation with 300 ng/mL R-FSL-1; for Inhibitory effect on R-FSL-elicited NO production (in words): R-FSL-1
Method: The murine J774A.1 macrophage cell lines were obtained from American Type Cell Collection (ATCC #TIB-67), seeded at 1.5 × 10^5 cells/well in Dulbecco’s modified eagle media (DMEM) containing 100U/mL of penicillin (Pen) and 100 μg/mL of streptomycin (Strep) on a 48-well plate (Costar® #3548), and incubated at 37 °C with 5% CO2. After 2 h, the medium of adhered cells was changed to DMEM-Pen/Strep containing 0.2% of bovine serum albumin (BSA), and supplemented with either azasulfurylpeptide 3a–f or [azaK^6]-GHRP-6 as a negative control. After 2 h of pre-incubation, the cells were stimulated overnight with 300 ng/mL of R-FSL-1. Supernatants were collected for fluorescence determination of nitrite using 2,3-diaminonaphtalene (DAN). Briefly, 25 μL of sample was incubated with 0.5 μg of DAN in a 100 μL final volume of phosphate buffer (50 mM, pH 7.5) at rt in the dark. After 15 min, the reaction was stopped with 20 µL of NaOH (2.8N) and the plate was read using a fluorescence plate reader (TECAN® Safire, λexc 365 nm and λem 430 nm).

[3] = system: TNFα secretion in peritoneal macrophages; assay: TNFα secretion by peritoneal macrophages stimulated with R-FSL-1 (ELISA); format: cell-based, C57BL/6 mice; conditions: 1 µM peptide, 2 h pretreatment, R-FSL-1 300 ng/mL, NA: no activity
Method: (§1) Peritoneal macrophage cells from C57BL/6 mice were harvested from sterile DMEM cell-culture medium (Wisent # 319-005-CL), allowed to adhere for 1 h at 37 °C in a 5% CO2 atmosphere, and washed twice with PBS to remove non-adherent cells. Macrophages (0.5 × 10^6 cells/well) were plated in 48 well-culture plates with DMEM containing 0.2% of bovine serum albumin (BSA), pretreated for 2 h with azasulfurylpeptides 3b–e or [azaK^6]-GHRP-6 (1 µM), before stimulation with a TLR2 ligand: R-FSL-1 (Invivogen® #L7022) at 300 ng/mL interferon gamma (IFNγ R&D Systems® Minneapolis, MN, USA # 172-5201) at 20 ng/mL for 4 or 24 h. The supernatants were recovered, and ELISA (eBioscience® #88-7324; 88-7391) was performed to determine the levels of proinflammatory cytokine and chemokine (TNFα, MCP-1). The effect on NF-κB activation was documented on cell lysates after 0, 5, 10, 15 and 30 min stimulation with R-FSL1, using NF-κB p65/RelA specific ELISA-based assay (eBioscience® #85-86083). The results were expressed as mean ± SEM and analyzed statistically by a one-way analysis of variance (ANOVA) with a Dunnett as a post-test. Level of significance was set at P < 0.05.

[4] = system: subretinal IBA-1 positive cells (activated microglia/macrophages); assay: Blue-light illumination model of retinal inflammation: IBA-1-positive cells in the subretinal space; format: in vivo; conditions: ApoE−/− mice, 1000 lux blue light 5 d, 289 nmol/kg s.c. for 7 consecutive days, vs illuminated vehicle-treated mice, n = 3–5
Method: Apo E deficient (ApoE^−/−) mice were obtained from The Jackson Laboratory (Bar Harbor, ME, USA). Animals were housed under 12 h light/dark cycles and fed ad libitum with a standard rodent diet. All experimental procedures were done in accordance with the Animal Ethics Committee at Université de Montreal (CDEA, project 12-012 approved on 26 January 2013) and the Canadian Council on Animal Care guidelines for use of experimental animals.
Three to four-month-old ApoE^−/− mice were exposed to blue LED-light (Yescom USA, Inc., City Of Industry, CA, USA) for 5 d at 1000 lux illumination without previous dark-adaptation. For pupil dilatation, ophthalmic atropine solution 1% (Alcon, Fort Worth, TX, USA) was applied to both eyes daily. Aza- and azasulfurylpeptides 1, 2 and 3c or [azaK^6]-GHRP-6 (289 nmol/kg) were administered subcutaneously at 24 h following blue-light exposure for 7 consecutive days. At the end of the blue-light exposure period, the mice were maintained on a 12:12 h light: dark cycle for 3 days, before being sacrificed. Enucleated eyes were fixed in 4% paraformaldehyde (PFA) for 15 min at rt and sectioned at the limbus; the anterior segments were discarded. The posterior eye cups consisting of retinal pigment epithelium (RPE)/choroid/sclera complex were collected and prepared for immunofluorescence analysis.
RPE/choroid/sclera flat-mounts were treated with PBS solution containing 0.1% Triton 100× and 10% fetal bovine serum (FBS) or 5% BSA (saturation buffer) for 45 min. Specimens were incubated overnight at 4 °C with primary antibodies diluted in saturation buffer. Immunofluorescence was performed using polyclonal rabbit anti-IBA-1 as marker of activated cells. […] Flatmounts were analyzed using an IX81 Olympus fluorescence microscope (Richmond Hill, ON, Canada). […]
IBA-1–stained cells were counted on flatmounts from control and illuminated mice injected daily with 0.9% NaCl or with aza- and azasulfurylpeptides 1, 2 and 3c or [azaK^6]-GHRP-6 (289 nmol/kg). Cell numbers were expressed as the mean number of IBA-1–positive cells in subretinal space. […]

CD36 [5] = target: T1, CD36; conditions: read-out: CD36 binding affinity IC50; cited from earlier work
[6] = system: mouse choroidal explants (RPE/choroid/sclera complex); assay: Microvascular sprouting on choroid explant as index of angiogenesis; format: cell-based; conditions: 10^−6 M, 24 h, Matrigel-embedded mouse choroidal explants, n = 3–4
Method: Choroidal explants were set as described previously. Briefly, enucleated mice eyes with and without treatment with aza- and azasulfurylpeptides 1, 2 and 3c or [azaK^6]-GHRP-6 were collected and dissected to obtain the complex consisting of the RPE/choroid/sclera, which was cut in 16 explant fragments and cultured in 20 µL of Matrigel (BD biosciences, San Jose, CA, USA) in 24-wells plates (Sarstedt Inc., St. Leonard, QC, Canada). […] Phototographs of explants were taken under microscopy (T0 and T24 h). The explants were washed with endothelial basal medium (EBM) and incubated in EBM with NaCl or CD36 ligands at 10^−6 M for 24 h. The sprouting surface was assessed by image analysis using imagen J software. Ratios (sprouting surface at T24 h, sprouting surface at T0)/sprouting surface at T0 were determined. Numerical results were expressed as mean ± SEM. Data were compared using one-way ANOVA with Dunnett’s post-test. P < 0.05 was considered statistically significant (Prism software version 5.01; graphpad Software, San Diego, CA, USA).

[7] = system: MCP-1 secretion in peritoneal macrophages; assay: MCP-1 secretion by peritoneal macrophages stimulated with R-FSL-1 (ELISA); format: cell-based, C57BL/6 mice; conditions: 1 µM peptide, 2 h pretreatment, R-FSL-1 300 ng/mL, NA: no activity
Method: as §1

T1 sequence (Q07969 whole entry): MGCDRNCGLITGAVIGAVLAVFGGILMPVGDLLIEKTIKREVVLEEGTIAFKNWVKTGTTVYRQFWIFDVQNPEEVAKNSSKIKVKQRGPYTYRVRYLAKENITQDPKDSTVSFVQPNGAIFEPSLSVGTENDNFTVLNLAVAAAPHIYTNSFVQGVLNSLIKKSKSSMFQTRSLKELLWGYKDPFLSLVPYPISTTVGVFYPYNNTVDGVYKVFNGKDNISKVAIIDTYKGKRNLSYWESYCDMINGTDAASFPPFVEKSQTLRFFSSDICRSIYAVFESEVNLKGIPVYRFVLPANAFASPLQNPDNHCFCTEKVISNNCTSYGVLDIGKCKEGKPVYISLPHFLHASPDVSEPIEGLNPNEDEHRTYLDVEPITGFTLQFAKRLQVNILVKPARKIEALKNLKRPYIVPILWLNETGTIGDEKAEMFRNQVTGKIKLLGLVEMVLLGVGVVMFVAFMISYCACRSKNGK

Compound | NO inhibition Fold of 1 [2] | Inhibitory effect on R-FSL-elicited NO production (in words) [2] | TNFα inhibition Fold of 1 [3] | Decrease of IBA-1+ cell accumulation in the subretina [4] [%] | further results
C[C@H](NC(=O)[C@@H](Cc1c[nH]c2ccccc12)NC(=O)[C@@H](N)Cc1c[nH]cn1)C(=O)NN(Cc1ccc(F)cc1)S(=O)(=O)N[C@H](Cc1ccccc1)C(=O)N[C@@H](CCCCN)C(N)=O [3c, H-His-D-Trp-Ala-(4-F)AsF-D-Phe-Lys-NH2] (H-H[dW]A[X1]K-NH2) |  |  |  |  | IC50 (CD36 [1]): 2.53 µM
H-Ala-D-Trp-Ala-AsF(4-F)-D-Phe-Lys-NH2 [3f] | -0.04 Fold of 1 | limited inhibitory effect |  |  | 
H-His-D-Trp-Ala-(4-MeO)AsF-D-Phe-Lys-NH2 [3d] | 1.5 Fold of 1 |  | 1.5 Fold of 1 |  | 
H-His-D-Trp-Ala-AsF(4-HO)-D-Phe-Lys-NH2 [3b] | 0.2 Fold of 1 |  |  |  | 
H-His-D-Trp-Ala-AsF-D-Phe-Lys-NH2 [3a] | 1.6 Fold of 1 | reduced significantly NO production |  | 50 | 
H-His-D-Trp-Ala-AsNal-D-Phe-Lys-NH2 [3e] | 0.06 Fold of 1 | limited inhibitory effect |  |  | 
His-D-Trp-Ala-aza(4-F)Phe-D-Phe-Lys-NH2 (H-H[dW]A[aza(4-F)Phe][dF]K-NH2; SMILES C[C@H](NC(=O)[C@@H](Cc1c[nH]c2ccccc12)NC(=O)[C@@H](N)Cc1c[nH]cn1)C(=O)NN(Cc1ccc(F)cc1)C(=O)N[C@H](Cc1ccccc1)C(=O)N[C@@H](CCCCN)C(N)=O) [compound 2, semicarbazide analog of GHRP-6, CD36 ligand] |  |  |  |  | IC50 (CD36 [5]): 6.06 µM
His-D-Trp-Ala-aza(4-F)Phe-D-Phe-Lys-NH2 [compound 2, semicarbazide analog of GHRP-6, CD36 ligand] | 1.4 Fold of 1 |  | 0.87 Fold of 1 | 50 | Effect on choroidal microvascular sprouting (in words) [6]: inhibited microvascular sprouting; MCP-1 inhibition Fold of 1 [7]: 0.97 Fold of 1
His-D-Trp-Ala-azaTyr-D-Phe-Lys-NH2 (H-H[dW]A[azaTyr][dF]K-NH2; SMILES C[C@H](NC(=O)[C@@H](Cc1c[nH]c2ccccc12)NC(=O)[C@@H](N)Cc1c[nH]cn1)C(=O)NN(Cc1ccc(O)cc1)C(=O)N[C@H](Cc1ccccc1)C(=O)N[C@@H](CCCCN)C(N)=O) [compound 1, semicarbazide analog of GHRP-6, CD36 ligand] |  |  |  |  | IC50 (CD36 [5]): 1.9 µM
His-D-Trp-Ala-azaTyr-D-Phe-Lys-NH2 [compound 1, semicarbazide analog of GHRP-6, CD36 ligand] | 1 ^a Fold of 1 |  | 1 ^b Fold of 1 | 50 | Effect on choroidal microvascular sprouting (in words) [6]: inhibited microvascular sprouting; MCP-1 inhibition Fold of 1 [7]: 1 ^c Fold of 1
